Test results as given in US12297197B2, “Pyrazolopyridine compound as RET inhibitor and application thereof” (GUANGZHOU BAIYUNSHAN PHARMACEUTICAL HOLDINGS CO., LTD. …, priority 2019, dated 2025).
Structures can show the parent of a compound that is named as a salt.

Molecular target: RET kinase (Homo sapiens, UniProt P07949)
Experiment: In-vitro enzyme activity test, RET kinase
Format: biochemical
Conditions: ATP 20 μM; 10 concentrations 3 μM to 0.152 nM
Procedure: The enzyme activity was detected by a Z′-LYTE™ kinase test, and inhibitory effects of the compounds onRET and RET (V804M) kinases were evaluated with an ICs value of each compound as an index.
The compounds used for RET and RET (V804M) kinase tests were diluted 3-fold, in 10 concentration gradients ranging from 3 μM to 0.152 nM; and the content of DMSO in detection reaction was 1%.
Basic reaction buffer, 20 mM 4-(2-hydroxyethyl)piperazine-1-ethanesulfonic acid (Hepes) buffer (pH 7.5), 10 mM MgCl2. 1 mM 1,2-bis[2-[bis(carboxymethyl)amino]ethoxy]ethane (EGTA), 0.02% polyoxyethylene lauryl ether (Brij35), 0.02 mg/mL bovine serum albumin, 0.1 mM of Na3VO4, 2 mM dithiothreitol (DTT) and 1% DMSO.
The compounds to be tested were dissolved in a 100% DMSO system to be diluted to 10 mM for further use. The solution was diluted by using Integra Viaflo Assist.
Test conditions: concentrations of RET kinase, peptide substrate CHKtide and adenosine triphosphate (ATP) were […], 1000 μM and 20 μM, respectively, and concentrations of RET (V804M) kinase, substrate peptide and ATP were […], 1000 μM and 30 μM, respectively.
Reaction process: compound solutions of different concentrations were added to a kinase/peptide solution prepared according to the test conditions, the obtained solution was incubated at room temperature for 20 minutes, and then 33P-ATP of corresponding concentrations were added, and the obtained solution was incubated at room temperature for 120 minutes. The radioactivity was detected by a filter-binding method.
The reaction was terminated by adding phosphoric acid (concentration, 0.5%) into a kinase reaction solution, and plate reading was carried out with an Envision instrument.
Data were converted into phosphorylation rate and inhibition rate, and the parametric curve was fitted by using GraphPad Software to obtain IC50 data of the compounds.

Sequence of RET kinase (P07949 29-1114): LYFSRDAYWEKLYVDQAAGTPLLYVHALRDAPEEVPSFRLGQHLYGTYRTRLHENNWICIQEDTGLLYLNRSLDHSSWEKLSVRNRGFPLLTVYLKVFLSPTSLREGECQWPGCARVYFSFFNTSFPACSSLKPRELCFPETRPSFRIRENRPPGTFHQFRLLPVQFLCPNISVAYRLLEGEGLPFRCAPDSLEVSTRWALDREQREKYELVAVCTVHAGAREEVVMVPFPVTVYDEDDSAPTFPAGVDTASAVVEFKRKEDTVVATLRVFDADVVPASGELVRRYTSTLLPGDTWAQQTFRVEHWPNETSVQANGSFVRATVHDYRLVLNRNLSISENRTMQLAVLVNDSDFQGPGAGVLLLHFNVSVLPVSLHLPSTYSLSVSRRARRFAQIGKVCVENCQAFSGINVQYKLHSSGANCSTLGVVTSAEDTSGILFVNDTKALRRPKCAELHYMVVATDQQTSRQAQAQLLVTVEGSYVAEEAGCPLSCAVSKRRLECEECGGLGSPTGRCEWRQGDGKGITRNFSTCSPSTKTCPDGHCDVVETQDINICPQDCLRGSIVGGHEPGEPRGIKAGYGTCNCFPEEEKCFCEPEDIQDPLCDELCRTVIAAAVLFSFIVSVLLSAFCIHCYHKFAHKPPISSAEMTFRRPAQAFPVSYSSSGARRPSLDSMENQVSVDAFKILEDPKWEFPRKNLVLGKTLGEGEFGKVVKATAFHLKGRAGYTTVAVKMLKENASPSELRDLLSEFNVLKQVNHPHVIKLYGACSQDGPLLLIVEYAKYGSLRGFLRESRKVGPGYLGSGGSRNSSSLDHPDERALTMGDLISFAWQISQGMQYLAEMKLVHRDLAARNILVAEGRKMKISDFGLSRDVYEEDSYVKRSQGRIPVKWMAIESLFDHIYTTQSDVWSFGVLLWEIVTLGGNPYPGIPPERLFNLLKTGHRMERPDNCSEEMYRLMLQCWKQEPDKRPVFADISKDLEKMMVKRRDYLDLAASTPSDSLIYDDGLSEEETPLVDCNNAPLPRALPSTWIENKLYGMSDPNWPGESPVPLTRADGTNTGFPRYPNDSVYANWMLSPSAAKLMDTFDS

First: CN1CCC(c2cc(-c3ccc(N4CCN(Cc5c(F)cccc5F)CC4)nc3)c3c(C#N)cnn3c2)C1 (stereo not drawn) [Trifluoroacetate of compound 6]
Second: COc1ccc(CN2CCN(c3ccc(-c4cc(C5=CCOCC5)cn5ncc(C#N)c45)cn3)CC2)cn1 [Hydrochloride of compound 29]
The IC50 of the first is 33-fold higher: 34.8 nM for the first, 1.04 nM for the second. The second is the more potent here.

First: N#Cc1cnn2cc(N3CCOCC3)cc(-c3ccc(N4CC5CC(C4)N5Cc4cnc5[nH]ccc5c4Cl)nc3)c12 [Compound 16]
Second: COc1ncc(CN2C3CC2CN(c2ccc(-c4cc(N5CCOCC5)cn5ncc(C#N)c45)cn2)C3)cc1F [Trifluoroacetate of compound 15]
The IC50 of the first is 5-fold higher: 6.08 nM for the first, 1.21 nM for the second.

Compared with N#Cc1cnn2cc(C3=CCOCC3)cc(-c3ccc(N4CC5CC(C4)N5Cc4ccc(C(F)(F)F)nc4)nc3)c12 [Trifluoroacetate of compound 56], N#Cc1cnn2cc(C3=CCOCC3)cc(-c3ccc(N4CC5CC(C4)N5Cc4cnc5c(c4)OCO5)nc3)c12 [Trifluoroacetate of compound 44] is 2.4-fold higher in IC50: 0.96 nM for the first, 2.34 nM for the second. The first is the more potent here.

First: COc1ccc(CN2C3CC2CN(c2ccc(-c4cc(N5CCN(C(C)=O)CC5)cn5ncc(C#N)c45)cn2)C3)cn1 [Trifluoroacetate of compound 20]
Second: CCN1CCN(c2cc(-c3ccc(N4CC5CC(C4)N5Cc4ccc(OC)nc4)nc3)c3c(C#N)cnn3c2)CC1 [Trifluoroacetate of compound 17]
The IC50 of the first is 5.8-fold lower: 0.9 nM for the first, 5.25 nM for the second. The first is the more potent here.

N#Cc1cnn2cc(N3CC[C@@H](F)C3)cc(-c3ccc(N4CC5CC(C4)N5Cc4cnc5[nH]ccc5c4)nc3)c12 [Trifluoroacetate of compound 73] and COc1ccc(CN2C3CC2CN(c2ccc(-c4cc(N5CC[C@H](O)C5)cn5ncc(C#N)c45)cn2)C3)cn1 [Compound 71] are within 1.5-fold of each other in IC50: 0.72 nM for the first, 0.59 nM for the second.

COc1ccc(CN2C3CC2CN(c2ccc(-c4cc(C5=CCNC(C)(C)C5)cn5ncc(C#N)c45)cn2)C3)cn1 [Trifluoroacetate of compound 48] and COc1ccc(CN2C3CC2CN(c2ccc(-c4cc(C5=CC(C)(C)OCC5)cn5ncc(C#N)c45)cn2)C3)cn1 [Compound 50] are within 1.5-fold of each other in IC50: 2.13 nM for the first, 1.87 nM for the second.

Going from COc1ccc(CN2C3CC2CN(c2ccc(-c4cc(N5CC[C@@H](OC)C5)cn5ncc(C#N)c45)cn2)C3)cn1 [compound 79] to COc1ccc(CN2C3CC2CN(c2ccc(-c4cc(N5CCC(OC)C5)cn5ncc(C#N)c45)cn2)C3)cn1 (stereo not drawn) [Trifluoroacetate of compound 77], the IC50 rises from 1.39 nM to 4.39 nM (3.2-fold).

Going from N#Cc1cnn2cc(C3=CCOCC3)cc(-c3ccc(N4CC5CC(C4)N5Cc4ccnc5c4OCO5)nc3)c12 [Triftuoroacetate of compound 43] to COc1ccc(CN2C3CC2CN(c2ccc(-c4cc(C5=CCOC5)cn5ncc(C#N)c45)cn2)C3)cn1 [Trifluoroacetate of compound 54], the IC50 rises from 0.72 nM to 2.42 nM (3.4-fold). The first is the more potent here.

Going from COc1ccc(CN2C3CC2CN(c2ccc(-c4cc(C5=CCC6(CC5)COC6)cn5ncc(C#N)c45)cn2)C3)cn1 [Trifluoroacetate of compound 47] to COc1ccc(CN2C3CC2CN(c2ccc(-c4cc(C5=CCC(C)(O)CC5)cn5ncc(C#N)c45)cn2)C3)cn1 (stereo not drawn) [Compound 42], the IC50 rises from 0.63 nM to 1.13 nM (1.8-fold). The first is the more potent here.

COc1ccc(CN2C3CC2CN(c2ccc(-c4cc(N5CCN(C)C(=O)C5)cn5ncc(C#N)c45)cn2)C3)cn1 [Trifluoroacetate of compound 19] and COc1ccc(CN2C3CC2CN(c2ccc(-c4cc(N5CCC(C)(O)C5)cn5ncc(C#N)c45)cn2)C3)cn1 (stereo not drawn) [Trifluoroacetate of compound 82] are within 1.5-fold of each other in IC50: 2.35 nM for the first, 2.34 nM for the second.

COc1ccc(CN2C3CC2CN(c2ccc(-c4cc(N5CC[C@H](OC)C5)cn5ncc(C#N)c45)cn2)C3)cn1 [compound 78] and COc1ccc(CN2C3CC2CN(c2ccc(-c4cc(N5CC[C@@H](O)C5)cn5ncc(C#N)c45)cn2)C3)cn1 [Compound 70] are within 1.5-fold of each other in IC50: 0.77 nM for the first, 1.09 nM for the second.

First: COc1ccc(CN2C3CC2CN(c2ccc(-c4cc(N5CCC(C)(O)CC5)cn5ncc(C#N)c45)cn2)C3)cn1 [Trifluoroacetate of compound 21]
Second: COc1ccc(CN2C3CC2CN(c2ccc(-c4cc(C5=CCN(C)CC5)cn5ncc(C#N)c45)cn2)C3)cn1 [Trifluoroacetate of compound 46]
The IC50 of the first is 1.7-fold higher: 1.98 nM for the first, 1.16 nM for the second.
